Test results as given in patent US7462635B2, “Thiazole and oxazole VDAC regulator” (Takeda Pharmaceutical Company Limited, priority 2002, dated 2008).

How the values were obtained:
PC12 cells [1] = assay: Cytochrome c leakage suppressing action (cytochrome c ELISA of cytoplasmic protein); type: cell-based; settings: DMEM with 0.5% FCS, 0.3 μmol/L Compound (5), 16 hours, 0.5% FCS group without compound 19.4
Procedure: The effect of Compound (5) on VDAC function was evaluated by determining the amount of cytochrome c leakage in the cytoplasm of PC12 cells.
PC12 cells, pre-cultured in a DMEM (Dulbecco's Modified Eagle's Medium) containing 10% FCS (Fetal Calf Serum), were sown to a culture dish of 10 cm diameter (Falcon) and cultured until they became nearly confluent. After the culture dish was washed with DMEM, a DMEM containing 0.5% FCS (0.5% FCS group) or a DMEM containing 0.5% FCS and 0.3 μmol/L Compound (5) (0.5% FCS+Compound (5) group) was added, and the cells were further cultured for 16 hours. The cells suspended in the culture broth and the cells adhering to the culture dish, detached by trypsin-EDTA treatment, were recovered. The recovered cells, after being washed with PBS, were ice-cooled in a digitonin solution [10 mmol/L HEPES, 0.3 mol/L mannitol, 0.1% (w/v) BSA, 100 μmol/L digitonin] (100 μL) for 5 minutes to extract cytoplasmic protein. After the obtained cytoplasmic protein was centrifuged at 8500×g for 5 minutes, 12 μL of the supernatant was analyzed using an assay kit [cytochrome c ELISA kit (MBL) and […] (Pierce), respectively] to determine its cytochrome c content and protein content. Subsequently, the cytochrome c content per unit amount of total protein was calculated, and this was taken as the amount of cytochrome c leakage (ng/mg). The results are shown in [Table 1].

PC12 cells [2] = assay: Mitochondria membrane potential-stabilizing action using Rodamin 123; type: cell-based; settings: FCS-free DMEM, 3 μmol/L, 4 hours, FCS addition group = 100%, non-addition group 131.2±12.9%, mean±standard deviation, n=8
Procedure: The mitochondria membrane potential-stabilizing action of Compound (5) was evaluated using Rodamin 123 (trade name, Molecular Probe).
(§1) After PC12 cells, pre-cultured in a DMEM containing 10% fetal calf serum (FCS), were suspended in the same medium to obtain a concentration of 2×10^5 cells/mL, the obtained suspension was sown to a 96-well culture plate to obtain a concentration of 0.1 mL/well and cultured for 24 hours. After said culture-plate was washed with DMEM, a solution obtained by diluting Compound (5) in FCS-free DMEM to obtain a concentration of 3 μmol/L was added, and cultivation was carried out for 4 hours [Compound (5) addition group]. […]
(§2) Subsequently, to each well of the culture plate, Rodamin 123 (trade name, Molecular Probe), which is a mitochondria membrane potential indicator, was added to obtain a concentration of 1 μmol/L; fluorescence just after the addition and after the plate was allowed to stand in a 5% CO2 incubator at 37° C. for 10 minutes was determined using a Fluoroscan (Flow Laboratories) [excitation wavelength (Ex.): 485 nm, emission wavelength (Em.): 538 nm], and its variation was obtained.
Furthermore, taking the fluorescence variation in the FCS addition group as 100%, relative values of fluorescence variation in the Compound (5) addition group and the Compound (5) non-addition group were calculated.

PC12 cells [3] = assay: Mitochondria respiration activity-increasing action using Alamar Blue; type: cell-based; settings: FCS-free DMEM, 3 μmol/L, 3 hours, B-27 addition group = 100%, non-addition group 73.2%±1.9%, mean±standard deviation, n=7
Procedure: The mitochondria respiration activity-increasing action of Compound (5) was evaluated using Alamar Blue.
as §1, with “said culture plate” for “said culture-plate”, “for 3” for “for 4”
as §2, with “10 μL of Alamar Blue solution (Alamar Biosciences),” for “Rodamin 123 (trade name, Molecular Probe),”, “respiration activity” for “membrane potential”, “added;” for “added to obtain a concentration of 1 μmol/L;”, “538” for “485”, “590” for “538”
Furthermore, taking the fluorescence variation in the B-27 addition group as 100%, relative values of fluorescence variation in the Compound (5) addition group and the Compound (5) non-addition group were calculated.

VDAC-3 = molecular target: T1, VDAC-3 (Homo sapiens, UniProt Q9Y277); assay: Identification of Compound (5)-binding protein: elution from Compound A-immobilized latex particles, SDS-PAGE, TOF-MS; settings: SK-N-SH nuclear fraction protein; elution with 300 μM Compound (5), 4° C., 1.5 hours; silver staining
T1 construct: protein was extracted from the nuclear fraction of human neuroblastoma SK-N-SH (ATCC); endogenous in cells; host or cells: SK-N-SH human neuroblastoma cells (ATCC)
T1 sequence (Q9Y277 1-283): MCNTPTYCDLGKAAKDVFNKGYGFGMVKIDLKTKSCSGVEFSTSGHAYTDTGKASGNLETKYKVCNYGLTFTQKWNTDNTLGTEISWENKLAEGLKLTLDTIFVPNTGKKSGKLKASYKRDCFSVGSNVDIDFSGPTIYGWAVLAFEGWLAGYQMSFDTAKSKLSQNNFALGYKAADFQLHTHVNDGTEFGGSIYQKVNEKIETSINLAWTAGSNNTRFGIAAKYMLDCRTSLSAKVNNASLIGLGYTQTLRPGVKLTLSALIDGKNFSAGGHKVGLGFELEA
Procedure: (§3) After 5 mg of carboxyl group-type latex particles obtained in Reference Example 1 was dispersed in dioxane, 23 mg of N-hydroxysuccinimide and 38 mg of water-soluble carbodiimide were added, and they were reacted at room temperature (about 20 to 25° C., the same applies below) for 2 hours. After the obtained succinimide-immobilized particles were washed with methanol, they were reacted with 4 mM Compound A (amino derivative of Compound (5)) in 0.5 mL of 0.2M sodium acetate buffer solution (pH 5.3) at room temperature for 1 hour to thereby immobilize Compound A onto the particles. To the obtained particles, 1M aqueous solution of ethanolamine-hydrochloric acid (pH 8.5) was added, and they were reacted at room temperature or 2 hours to thereby block unreacted groups in the succinimide-immobilized particles, after which the particles were washed with 50% methanol and water to give Compound A-immobilized particles. The Compound A-immobilized particles were dispersed in water to obtain a concentration of 10 mg/mL and stored under refrigeration. […]
(§4) Subsequently, centrifugation (15, 000×g, 5 minutes) was carried out, the supernatant was removed, and the obtained particles were washed with 0.05TGEMN buffer. […] After centrifugation (15, 000×g, 5 minutes), the protein-containing supernatant was analyzed by SDS-PAGE. […]

PC12 cells [4] = assay: Apoptosis-suppressing action: nucleosome content (Cell Death Detection ELISA), low serum-induced apoptosis; type: cell-based; settings: DMEM with 0.5% FCS, 0.3 μmol/L Compound (5), 24 hours, 10% FCS group = 100%, 0.5% FCS group 422
Procedure: The apoptosis-suppressing action of Compound (5) was evaluated by determining the nucleosome content in PC12 cells.
PC12 cells, pre-cultured in a DMEM containing 10% FCS, were sown to a 24-well culture plate to obtain a concentration of 6×10^4 cells/well, and cultured for 24 hours. After the culture plate was washed with DMEM, a DMEM containing 0.5% FCS (0.5% FCS group) or a DMEM containing 0.5% FCS and 0.3 μmol/L Compound (5) (0.5% FCS+Compound (5) group) was added, and the cells were further cultured for 24 hours. Also, as a control group, the same procedures were carried out using a DMEM containing 10% FCS (10% FCS group). The cells suspended in the culture broth and the cells adhering to the culture plate, detached by trypsin-EDTA treatment, were recovered. According to the protocol of an apoptosis assay kit with nucleosome detection as an index (Cell Death Detection ELISA, Roche), the recovered cells were suspended in 500 μL of the cytolytic solution attached to said assay kit. After the suspension was ice-cooled for 30 minutes, it was centrifuged at 15, 000 rpm for 10 minutes and 400 μL of the supernatant was recovered. Said supernatant was diluted 2 fold and subjected to ELISA to determine its nucleosome content. Subsequently, taking the nucleosome content in the 10% FCS group as 100%, percentage in each group was calculated. The results are shown in [Table 2].

[5] = molecular target: T2, voltage-dependent anion channel (VDAC)-1 (Homo sapiens, UniProt P21796); assay: Identification of Compound (5)-binding protein: elution from Compound A-immobilized latex particles, SDS-PAGE, TOF-MS, immunoblotting; settings: SK-N-SH nuclear fraction protein; elution with 300 μM Compound (5), 4° C., 1.5 hours; silver staining
T2 construct: protein was extracted from the nuclear fraction of human neuroblastoma SK-N-SH (ATCC); endogenous in cells; host or cells: SK-N-SH human neuroblastoma cells (ATCC)
T2 sequence (P21796 whole entry): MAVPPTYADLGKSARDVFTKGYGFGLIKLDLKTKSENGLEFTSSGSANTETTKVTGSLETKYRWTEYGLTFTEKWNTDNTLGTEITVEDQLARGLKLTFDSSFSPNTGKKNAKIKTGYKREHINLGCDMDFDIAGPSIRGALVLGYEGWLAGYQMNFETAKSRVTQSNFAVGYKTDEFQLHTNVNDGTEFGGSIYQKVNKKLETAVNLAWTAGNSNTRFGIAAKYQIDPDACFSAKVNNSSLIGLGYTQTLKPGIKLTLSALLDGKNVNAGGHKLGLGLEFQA
Procedure: as §3, §4

about 30 kDa protein band (VDAC-3) eluted from Compound A-immobilized particles (VDAC-3): eluted selectively
about 32 kDa protein band (VDAC-1) eluted from Compound A-immobilized particles [5]: eluted selectively
SMILES: Cc1ccccc1OCCCc1oc(-n2ccnc2C)nc1-c1ccc(Cl)cc1 [Compound (5), 4-(4-chlorophenyl)-2-(2-methyl-1-imidazolyl)-5-[3-(2-methylphenoxy)propyl]oxazole]
Amount of cytochrome c leakage (PC12 cells [1]): 7.0 ng/mg
fluorescence variation (Rodamin 123), relative value (PC12 cells [2]): 110.0%±8.0%
fluorescence variation (Alamar Blue), relative value (PC12 cells [3]): 126.7%±15.7%
Nucleosome content (PC12 cells [4]): 176%
